This is an account of results in patent publication US20140073801A1, “PYRROLIDINE DERIVATIVES AS SELECTIVE GLYCOSIDASE INHIBITORS AND USES THEREOF” (Summit Corporation Plc, priority 2011, published 2014).

Assay [1] deals with O-GlcNAc modified proteins in PC-12 cells or SH-SY5Y cells. Kind of assay: Western blot analyses of O-GlcNAc modified proteins in cells. Format: cell-based. Conditions: western blot, cells dosed 4 hours at 37° C.; cell line not given. As to the method: PC-12 cells or SH-SY5Y cells were dosed with the test compound or vehicle control at 37° C. for 4 hours. Once the incubation was completed the media was removed and cells were lysed. Extracted protein was then used for Western blot analysis using standard molecular biology techniques. The resulting membrane was probed with antibodies specific for tau phosphorylation sites (pSer396, pSer422, pThr231, pSer262) or with antibodies specific for O-GlcNAcylation sites (RL-2 or CTD110.6). The primary antibodies were visualised using appropriate secondary conjugated with the fluorophores Alexa 532 or Alexa 488. Actin was visualised using a FITC conjugated primary antibody. Relative quantification was measured in relation to the actin signal using Image lab software (BRL). Marked increases in O-GlcNAcylated proteins within the cells were observed as compared to controls when cells were dosed with test compound.

In assay [2] the test system is human β-hexosaminidase [human placenta] (HexA/B). Kind of assay: Determination of IC50 values for inhibition of human β-hexosaminidase. Particulars: ratio. Format: biochemical. Here is the method:
(§1) Inhibitors identified from the screen described in Example 1 were evaluated for IC50 against human β-hexosaminidase [human placenta, Sigma-Aldrich] using a range of inhibitor concentrations from 300 μM to 0.003 μM or 100 μM to 0.001 μM and the following reaction conditions:
(§2) Reactions were carried out at room temperature for thirty minutes and then quenched through the addition of 150 μl 0.5M Na2CO3. Fluorescence readings were taken at excitation wavelength 360 nm and emission wavelength 450 nm. IC50 values were calculated using XLFit 4. The selectivity ratio for inhibition of human O-GlcNAcase over human β-hexosaminidase is defined here as:
(§3) IC50(human β-hexosaminidase)/IC50(Human OGA)

The target in assay [3] is T1, human β-hexosaminidase [human placenta] (HexA/B).
T1 construct: other: human β-hexosaminidase, human placenta; room temperature, thirty minutes
Described as above. It is filed as biochemical. Particulars: human β-hexosaminidase, human placenta; room temperature, thirty minutes. As to the method:
as §1, §2, §3

In a further assay the target is T2, human OGA (Homo sapiens, UniProt O60502).
T2 construct: made in house
T2 sequence (O60502 1-916): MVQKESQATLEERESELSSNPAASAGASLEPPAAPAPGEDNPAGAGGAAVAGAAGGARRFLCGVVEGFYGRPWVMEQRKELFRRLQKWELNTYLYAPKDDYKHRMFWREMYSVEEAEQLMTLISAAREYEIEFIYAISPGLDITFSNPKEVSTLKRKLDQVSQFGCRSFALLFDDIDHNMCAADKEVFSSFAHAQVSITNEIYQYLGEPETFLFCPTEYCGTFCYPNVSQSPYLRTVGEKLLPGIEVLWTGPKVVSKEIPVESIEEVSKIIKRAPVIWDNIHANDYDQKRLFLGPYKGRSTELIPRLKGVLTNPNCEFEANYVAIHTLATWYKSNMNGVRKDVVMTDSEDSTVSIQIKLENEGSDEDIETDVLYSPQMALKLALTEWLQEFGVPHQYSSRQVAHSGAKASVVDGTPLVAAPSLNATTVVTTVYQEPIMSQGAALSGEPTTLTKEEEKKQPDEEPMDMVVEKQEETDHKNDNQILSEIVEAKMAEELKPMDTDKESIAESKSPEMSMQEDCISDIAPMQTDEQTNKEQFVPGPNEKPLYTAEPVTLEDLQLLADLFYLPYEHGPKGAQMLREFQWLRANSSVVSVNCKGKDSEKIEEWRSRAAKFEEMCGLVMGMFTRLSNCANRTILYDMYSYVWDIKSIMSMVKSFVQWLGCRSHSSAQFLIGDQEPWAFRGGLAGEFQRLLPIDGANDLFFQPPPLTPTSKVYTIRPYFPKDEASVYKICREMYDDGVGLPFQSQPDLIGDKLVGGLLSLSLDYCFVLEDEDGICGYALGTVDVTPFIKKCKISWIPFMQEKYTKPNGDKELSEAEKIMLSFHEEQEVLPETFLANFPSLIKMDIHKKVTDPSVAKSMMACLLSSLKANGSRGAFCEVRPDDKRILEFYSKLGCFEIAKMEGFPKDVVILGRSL
The assay is described as follows: Determination of IC50 values for inhibition of human OGA. Format: biochemical. Here is the method:
Inhibitors identified from the screen described in Example 1 were evaluated for IC50 using a procedure adapted from Biochem. J. 2009, 420, 221-227. IC50 determination was carried out using a range of inhibitor concentrations from 300 μM to 0.003 μM or 100 μM to 0.001 μM. IC50 values were calculated using XLFit 4.

For orientation: EC50 means the midpoint of the concentration-response curve. A lower EC50 goes with higher potency in that assay. What is called IC50 is the concentration that gives 50% inhibition. Higher therefore signals weaker potency. For `CNC(=O)C[C@H]1N[C@H](CO)[C@@H](O)[C@H]1O` [Compound A007, 2-((2R,3S,4R,5R)-3,4-dihydroxy-5-(hydroxymethyl)pyrrolidin-2-yl)-N-methylacetamide], in assay [1], the midpoint of the response, the EC50, lay at 4000 nM. For the same compound, the “Selectivity: IC50(human β-hexosaminidase)/IC50(Human OGA)” value in assay [2] is greater than 3000. Besides, the concentration for half-maximal inhibition (IC50) is greater than 300 µM in assay [3] and 102 nM on human OGA.

In assay [1], `CNC(=O)C[C@@H]1[C@H](O)[C@H](O)[C@@H](CO)N1CCc1ccccc1` [Compound A010, 2-((2R,3S,4R,5R)-3,4-dihydroxy-5-(hydroxymethyl)-1-phenethylpyrrolidin-2-yl)-N-methylacetamide] registered an EC50 of 1540 nM. Moreover, the “Selectivity: IC50(human β-hexosaminidase)/IC50(Human OGA)” value in assay [2] amounted to 3666. Moreover, the IC50 in assay [3] stood at 33 µM; against human OGA, 9 nM.

In turn, `CN(C)c1ccc(S(=O)(=O)NCCCCCCN2[C@H](CC(N)=O)[C@H](O)[C@H](O)[C@H]2CO)c2ccccc12` [Compound A015, 2-((2R,3S,4R,5R)-1-(6-(4-(dimethylamino)naphthalene-1-sulfonamido)hexyl)-3,4-dihydroxy-5-(hydroxymethyl)pyrrolidin-2-yl)acetamide] displayed an EC50 in assay [1] of 80 nM. In addition, the “Selectivity: IC50(human β-hexosaminidase)/IC50(Human OGA)” value in assay [2] is greater than 3666. For the same compound, the results for the IC50 (in assay [3]; on human OGA) were 11 µM and less than 3 nM, respectively.

`CNC(=O)C[C@@H]1[C@H](O)[C@H](O)[C@@H](CO)N1CCCC(C)C` [Compound A018, 2-((2R,3S,4R,5R)-3,4-dihydroxy-5-(hydroxymethyl)-1-(4-methylpentyl)pyrrolidin-2-yl)-N-methylacetamide]: the EC50 in assay [1] was 931 nM. In assay [2], the “Selectivity: IC50(human β-hexosaminidase)/IC50(Human OGA)” value is 5000. Besides, the IC50 worked out at 69 µM in assay [3] and 14 nM on human OGA.

Compound `CCN1[C@H](CC(=O)NC)[C@H](O)[C@H](O)[C@H]1CO` [Compound A019, 2-((2R,3S,4R,5R)-1-ethyl-3,4-dihydroxy-5-(hydroxymethyl)pyrrolidin-2-yl)-N-methylacetamide] gave an EC50 in assay [1] of 1900 nM. Also, the “Selectivity: IC50(human β-hexosaminidase)/IC50(Human OGA)” value in assay [2] is greater than 4366. Also, the IC50 was greater than 300 µM in assay [3] and 69 nM against human OGA.

`CCNC(=O)C[C@H]1N[C@H](CO)[C@@H](O)[C@@H]1O` [Compound A050, 2-((2R,3R,4R,5R)-3,4-dihydroxy-5-(hydroxymethyl)pyrrolidin-2-yl)-N-ethylacetamide] returned an EC50 in assay [1] of 2720 nM. In addition, in assay [2], the “Selectivity: IC50(human β-hexosaminidase)/IC50(Human OGA)” value is given as greater than 728. Further, the IC50 was greater than 300 µM in assay [3] and 412 nM on human OGA.

Regarding `CCCNC(=O)C[C@H]1N[C@H](CO)[C@@H](O)[C@@H]1O` [Compound A052, 2-((2R,3R,4R,5R)-3,4-dihydroxy-5-(hydroxymethyl)pyrrolidin-2-yl)-N-propylacetamide], the midpoint of the response in assay [1], the EC50, lay at 1070 nM. Moreover, the “Selectivity: IC50(human β-hexosaminidase)/IC50(Human OGA)” value in assay [2] is recorded as greater than 2654. Further, the IC50 in assay [3] was greater than 300 µM; on human OGA, 113 nM.

`CCCCCCN1[C@H](CO)[C@@H](O)[C@H](O)[C@H]1CC(=O)NCC` [Compound A053, N-ethyl-2-((2R,3R,4R,5R)-1-hexyl-3,4-dihydroxy-5-(hydroxymethyl)pyrrolidin-2-yl)acetamide] registered an EC50 in assay [1] of 1410 nM. Besides, the “Selectivity: IC50(human β-hexosaminidase)/IC50(Human OGA)” value in assay [2] is greater than 4769. Besides, the results for the IC50 (in assay [3]; against human OGA) were greater than 300 µM and 62.9 nM, respectively.

`CCCCCCN1[C@H](CO)[C@@H](O)[C@H](O)[C@H]1CC(=O)NCCC` [Compound A055, 2-((2R,3R,4R,5R)-1-hexyl-3,4-dihydroxy-5-(hydroxymethyl)pyrrolidin-2-yl)-N-propylacetamide] came in with an EC50 in assay [1] of 3720 nM. The “Selectivity: IC50(human β-hexosaminidase)/IC50(Human OGA)” value in assay [2] is reported as greater than 2529. Further, the IC50 in assay [3] was greater than 300 µM; on human OGA it was 119 nM.

On to `CCNC(=O)C[C@@H]1[C@@H](O)[C@H](O)[C@@H](CO)N1CCCc1ccccc1` [Compound A061, 2-((2R,3R,4R,5R)-3,4-dihydroxy-5-(hydroxymethyl)-1-(3-phenylpropyl)pyrrolidin-2-yl)-N-ethylacetamide], for which the “Selectivity: IC50(human β-hexosaminidase)/IC50(Human OGA)” value in assay [2] is recorded as greater than 4329. Further, the IC50 is greater than 300 µM in assay [3] and 69.3 nM on human OGA.

For `CCNC(=O)C[C@@H]1[C@@H](O)[C@H](O)[C@@H](CO)N1CCOc1ccc(Cl)cc1Cl` [Compound A062, 2-((2R,3R,4R,5R)-1-(2-(2,4-dichlorophenoxy)ethyl)-3,4-dihydroxy-5-(hydroxymethyl)pyrrolidin-2-yl)-N-ethylacetamide], the “Selectivity: IC50(human β-hexosaminidase)/IC50(Human OGA)” value in assay [2] is greater than 585. The results for the IC50 (in assay [3]; against human OGA) were greater than 300 µM and 512 nM, respectively.

With `CNC(=O)C[C@@H]1[C@H](O)[C@H](O)[C@@H](CO)N1CCCNC(=O)OC(C)(C)C` [Compound A065, tert-butyl (3-((2R,3R,4S,5R)-3,4-dihydroxy-2-(hydroxymethyl)-5-(2-(methylamino)-2-oxoethyl)pyrrolidin-1-yl)propyl)carbamate], the “Selectivity: IC50(human β-hexosaminidase)/IC50(Human OGA)” value in assay [2] is 8342. In addition, the results for the IC50 (in assay [3]; on human OGA) were 58.4 µM and 7 nM, respectively.

Regarding `CNC(=O)C[C@@H]1[C@H](O)[C@H](O)[C@@H](CO)N1CCCCCNS(=O)(=O)c1ccc(Oc2ccccc2)cc1` [Compound A067, 2-((2R,3S,4R,5R)-3,4-dihydroxy-5-(hydroxymethyl)-1-(5-(4-phenoxyphenylsulfonamido)pentyl)pyrrolidin-2-yl)-N-methylacetamide], the “Selectivity: IC50(human β-hexosaminidase)/IC50(Human OGA)” value in assay [2] is on record as greater than 5000. Further, the IC50 in assay [3] was 15 µM; against human OGA, less than 3 nM.

Regarding `CCNC(=O)C[C@@H]1[C@@H](O)[C@H](O)[C@@H](CO)N1C(=O)CCc1ccccc1` [Compound A069, 2-((2R,3R,4R,5R)-3,4-dihydroxy-5-(hydroxymethyl)-1-(3-phenylpropanoyl)pyrrolidin-2-yl)-N-ethylacetamide], the “Selectivity: IC50(human β-hexosaminidase)/IC50(Human OGA)” value in assay [2] is listed as greater than 1.34. Further, the figures for the IC50 (in assay [3]; against human OGA) were greater than 300 µM and 224000 nM, respectively.

With `CCNC(=O)C[C@@H]1[C@@H](O)[C@H](O)[C@@H](CO)N1CCCc1ccc(S(=O)(=O)NCC)cc1` [Compound A070, N-ethyl-2-((2R,3R,4R,5R)-1-(3-(4-(N-ethylsulfamoyl)phenyl)propyl)-3,4-dihydroxy-5-(hydroxymethyl)pyrrolidin-2-yl)acetamide], the “Selectivity: IC50(human β-hexosaminidase)/IC50(Human OGA)” value in assay [2] worked out at 22133. For the same compound, the IC50 in assay [3] amounted to 166 µM; on human OGA, 7.5 nM.

As for `CCNC(=O)C[C@@H]1[C@@H](O)[C@H](O)[C@@H](CO)N1CCCc1ccc(Sc2ccccc2)cc1` [Compound A071, 2-((2R,3R,4R,5R)-3,4-dihydroxy-5-(hydroxymethyl)-1-(3-(4-(phenylthio)phenyl)propyl)pyrrolidin-2-yl)-N-ethylacetamide], the “Selectivity: IC50(human β-hexosaminidase)/IC50(Human OGA)” value in assay [2] is recorded as greater than 42857. Moreover, the IC50 is greater than 300 µM in assay [3] and 7 nM on human OGA.

`CNC(=O)C[C@@H]1[C@H](O)[C@H](O)[C@@H](CO)N1CCCNS(=O)(=O)c1ccc(-c2ccccc2)cc1` [Compound A072, 2-((2R,3S,4R,5R)-1-(3-([1,1′-biphenyl]-4-ylsulfonamido)propyl)-3,4-dihydroxy-5-(hydroxymethyl)pyrrolidin-2-yl)-N-methylacetamide]: the “Selectivity: IC50(human β-hexosaminidase)/IC50(Human OGA)” value in assay [2] is greater than 150000. Moreover, the IC50 was greater than 300 µM in assay [3] and 2 nM against human OGA.
